# Laboratory results from US9290535B2, “Uridine-based gadolinium complex and MRI contrast agent including the same” (Korea University Researchand Business Foundation, priority 2011, dated 2016).
# Several values for one entry are separate records, joined by “and”; a condition that tells them apart may be missing. Equal entries are not always repeated.
# Assays:
# [1] = Stability against transmetallation by Zn2+ (time evolution of proton relaxation rate); type: physicochemical; details: for Relaxivity retained after transmetallation: 2.5 mM complex with 2.5 mM ZnCl2 in PBS, after 70 h; for y0 of fit y0+A×exp(−t/C1) of proton relaxation rate during transmetallation: Zn(II) ions, PBS, 20 MHz (0.47 T), 36° C., steady state in about 70 h
# Description: The stability of the gadolinium complex against various biologically active metal ions is very important in in vivo applications. Among them, only Zn^2+ can displace significant amounts of the Gd^3+ ion as concentration of Zn^2+ in blood is relatively high (55-125 μM/L). The stability of the complexes LGd1-4 against transmetallation by Zn^2+ was studied employing the method of others.
# The time evolution of the ^1H longitudinal relaxivity (R1) of a 2.5 mM gadolinium complex with 2.5 mM ZnCl2 in PBS solution was measured. Stability of the amphiphilic complex LGd2 of the present invention was greater than that of the non-aggregated complex LGd1 (FIG. 13). After 70 h, the relaxivities were retained 30, 50, 21, and 12% for LGd1-4, respectively.
# [2] = Relaxivity measurements (r1, r2) in PBS solution; type: physicochemical; details: PBS solution, 36° C.
# Description: Longitudinal and transverse relaxivities, r1 and r2, were measured at 20 MHz (0.47 T) and 60 MHz (1.41 T) at 36° C. on NMR (mq20 and mq60, Bruker, Germany) and animal MRI (Biospec 47/40, Bruker, Germany) systems. T1 and T2 relaxation times were measured with inversion recovery and spin-echo pulse sequences, respectively.
# The relaxation efficiency of the newly synthesized amphiphilic MRI contrast agents according to the present invention was determined by measuring longitudinal relaxivity (r1) and transverse relaxivity (r2) at 20 MHZ (0.47 T) and 60 MHz (1.41 T) in phosphate buffered saline (PBS) solution at 36° C.
# [3] = molecular target: T1, human serum albumin (HSA) (Homo sapiens, UniProt P02768); experiment: Interaction with human serum albumin (relaxivity with HSA, binding constant); details: 36° C.; for Relaxivity r1^a (with HSA): 20 MHz (0.47 T), PBS solution with 0.65 mM HSA
# T1 construct: purchased Sigma (Bornem, Belgium) A3782
# Source text: It is well known that non-covalent interaction of the contrast agent with human serum albumin (HSA) increases its circulation time in blood and slows down tubling rate, leading to greater contrast enhancement for blood vessel imaging. In this example, effective interaction between the newly synthesized contrast agents (CAs) and human serum albumin (HSA) were investigated.
# Human serum albumin (HSA; Product No. A3782) was purchased from Sigma (Bornem, Belgium) and was used without further purification. HSA binding experiment was performed with 50 μM of the complexes LGd1-5 in PBS solution depending on the concentration of HSA from 0 to 4 mM at 20 MHz and 36° C.
# The increment of R1/R1^0 with increasing aliphatic chain length is: LGd2>LGd3>LGd4>LGd5.
# Furthermore, to know the non-covalent binding strength between HSA and the complex, a binding constant (Ka) of (3.34±0.28)×10^3 M^−1 for the complex LGd3 was determined using the theoretical equation reported in the reference (D. T. Schuhle, J. Schatz, S. Laurent, L. V. Elst, R. N. Muller, M. C. A. Stuart, J. A. Peters, Chem. Eur. J. 2009, 15, 3290). The relaxivity for the non-aggregate form of LGd3 (r1^f) was measured to be 18.5 mM^−1s^−1 (below CMC=50 μM; FIG. 10), while for adduct LGd3.HSA (r1^c), 41.0 mM^−1s^−1 at 36° C. and 20 MHz (0.47 T) in PBS solution. […] As a result, the complex LGd3 of the present invention could be retained in vivo for a longer time.
# [4] = pH dependence of water 1H relaxivity; type: physicochemical; details: 36° C.
# Description: The relaxivities of the non-aggregated complex LGd1 and the most aggregated complex LGd3 (FIG. 7, average diameter […]) were investigated at various pH values (3.5-11) at 60 MHz (1.41 T) and 36° C.
# The pH dependence of water ^1H-NMR relaxivity r1 was obtained at 60 MHz and 36° C. The complexes LGd1 and LGd3 were dissolved in previously prepared stock solutions (StockOptions pH Screen, Hampton Research, USA) at pH 3.5-11.
# [5] = clinical liver-specific contrast agents; cited from earlier work
# [6] = Dynamic light scattering (DLS) of micelles; type: physicochemical; details: FIGS. 6 to 9; for DLS average size of micelles: pH 7.4
# T1 sequence (P02768 25-609): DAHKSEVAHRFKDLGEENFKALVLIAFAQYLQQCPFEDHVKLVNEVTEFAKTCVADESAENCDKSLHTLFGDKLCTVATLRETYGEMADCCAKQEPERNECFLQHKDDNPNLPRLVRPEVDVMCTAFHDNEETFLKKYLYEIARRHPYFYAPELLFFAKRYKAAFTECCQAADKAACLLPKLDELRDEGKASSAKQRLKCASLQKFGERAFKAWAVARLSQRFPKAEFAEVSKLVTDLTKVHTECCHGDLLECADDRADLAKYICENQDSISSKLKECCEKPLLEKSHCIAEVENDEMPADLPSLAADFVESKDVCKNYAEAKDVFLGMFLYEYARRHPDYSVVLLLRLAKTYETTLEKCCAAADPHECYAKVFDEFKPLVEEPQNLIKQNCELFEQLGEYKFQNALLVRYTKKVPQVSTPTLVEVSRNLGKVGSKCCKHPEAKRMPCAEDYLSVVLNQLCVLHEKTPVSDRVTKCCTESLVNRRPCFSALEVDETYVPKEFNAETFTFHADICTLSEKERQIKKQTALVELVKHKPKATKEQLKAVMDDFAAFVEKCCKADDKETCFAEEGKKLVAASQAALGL
Relaxivity retained after transmetallation [1] [%],y0 of fit y0+A×exp(−t/C1) of proton relaxation rate during transmetallation [1],Relaxivity r1 ([2]; 20 MHz (0.47 T)) [mM⁻¹ s⁻¹],Relaxivity r1 ([2]; 60 MHz (1.41 T)) [mM⁻¹ s⁻¹],Relaxivity r1^a (with HSA) [3] [mM⁻¹ s⁻¹],"Relaxivity over the given pH range ([4]; pH 3.5-11, 60 MHz (1.41 T))","Decrease of relaxivity at alkaline pH ([4]; pH 11, 60 MHz)",DLS PDI of micelles [6],DLS average size of micelles [6] [nm],"Effective interaction with HSA (R1/R1^0) ([3]; 50 μM complex, HSA below 1.0 mM, 20 MHz)",SMILES,Hepatic excretion [5] [%],Renal excretion [5] [%]
30,0.30,5.10,4.17,5.62,5.0±0.1 mM^−1s^−1 and 5.0±0.6 mM^−1s^−1,about 10%,–,–,–,O=C([O-])CN(CCN(CCN(CC(=O)[O-])CC(=O)[O-])C[C@H]1O[C@@H](n2ccc(=O)[nH]c2=O)[C@H](O)[C@@H]1O)CC(=O)[O-].[Gd+3] [LGd1],–,–
–,–,–,–,–,–,–,–,–,–,"CNC[C@H](O)[C@@H](O)[C@H](O)[C@H](O)CO.CNC[C@H](O)[C@@H](O)[C@H](O)[C@H](O)CO.O=C([O-])CN(CCN(CC(=O)[O-])CC(=O)O)CCN(CC(=O)O)C(COCc1ccccc1)C(=O)[O-].[Gd+3] (stereo not drawn) [Multihance®, Gd-BOPTA]",4,96
12,0.12,27.10,16.50,38.50,–,–,1.12,50.16,–,CCCCCCCCCCCC(=O)O[C@@H]1[C@H](OC(=O)CCCCCCCCCCC)[C@@H](CN(CCN(CC(=O)[O-])CC(=O)[O-])CCN(CC(=O)[O-])CC(=O)[O-])O[C@H]1n1ccc(=O)[nH]c1=O.[Gd+3] [LGd4],–,–
50,0.50,14.70,12.40,31.90,–,–,0.986,6.78,high,CCCCCCCC(=O)O[C@@H]1[C@H](OC(=O)CCCCCCC)[C@@H](CN(CCN(CC(=O)[O-])CC(=O)[O-])CCN(CC(=O)[O-])CC(=O)[O-])O[C@H]1n1ccc(=O)[nH]c1=O.[Gd+3] [LGd2],–,–
–,–,–,–,–,–,–,–,–,–,"O=C([O-])CN(CCN(CC(=O)[O-])CC(COP(=O)([O-])OC1CCC(c2ccccc2)(c2ccccc2)CC1)N(CC(=O)[O-])CC(=O)[O-])CC(=O)[O-].[Gd+3].[Na+].[Na+].[Na+] (stereo not drawn) [Vasovist®, diphenylcyclohexyl phosphodiester-Gd-DTPA]",8,91
–,–,20.10,17.20,26.40,–,–,1.14,24.74,–,CCCCCCCCCCCCCC(=O)O[C@@H]1[C@H](OC(=O)CCCCCCCCCCCCC)[C@@H](CN(CCN(CC(=O)[O-])CC(=O)[O-])CCN(CC(=O)[O-])CC(=O)[O-])O[C@H]1n1ccc(=O)[nH]c1=O.[Gd+3] [LGd5],–,–
–,–,–,–,–,–,–,–,–,–,"CCOc1ccc(CC(CN(CCN(CC(=O)[O-])CC(=O)[O-])CC(=O)[O-])N(CC(=O)[O-])CC(=O)[O-])cc1.[Gd+3].[Na+].[Na+] (stereo not drawn) [Primovist®, Gd-EOB-DTPA]",50,50
